# Data taken from ChEMBL document CHEMBL1926545, “The 2,11-cyclized cembranoids: cladiellins, asbestinins, and briarellins (period 1998-2010)” (J Nat Prod, 2011).
# Activity calls are given as the source filed them. The rule behind the calls is not given here.
# Assays:
# Ca9-22 = assay: Cytotoxicity against human Ca9-22 cells; assay type: functional, cell-based
# A549 = assay: Cytotoxicity against human A549 cells; assay type: functional, cell-based
# MDA-MB-231 = assay: Cytotoxicity against human MDA-MB-231 cells; assay type: functional, cell-based
# HepG2 = assay: Cytotoxicity against human HepG2 cells; assay type: functional, cell-based
# [1] = Cytotoxicity against human Hep3B cells; assay type: functional, cell-based, Hep 3B2
# MCF7 = assay: Cytotoxicity against human MCF7 cells; assay type: functional, cell-based
# RAW264.7 [2] = assay: Antiinflammatory activity in […] RAW264.7 cells assessed as LPS-induced COX-2 expression at 10 uM; assay type: functional
# RAW264.7 [3] = assay: Antiinflammatory activity in […] RAW264.7 cells assessed as LPS-induced iNOS expression at 10 uM; assay type: functional
# [4] = Cytostatic activity against human NSCLC-N6 cells; assay type: functional, cell-based
# L1210 = assay: Cytotoxicity against mouse L1210 cells; assay type: functional, cell-based
# [5] = Homo sapiens, Ca9-22, read-out: IC50
# [6] = Homo sapiens, A549, read-out: IC50
# [7] = Homo sapiens, MDA-MB-231, read-out: IC50
# [8] = Homo sapiens, HepG2, read-out: IC50
# [9] = Homo sapiens, Hep3B, read-out: IC50
# [10] = Homo sapiens, MCF7, read-out: IC50
SMILES,IC50 (Ca9-22; ca9-22),IC50 (A549; a549),IC50 (MDA-MB-231; mda-mb-231),IC50 (HepG2; hepg2),IC50 ([1]; hep 3b2),IC50 (MCF7; mcf7),further results
CCCC(=O)O[C@]1(C)CC[C@H](O)[C@@H](C)C[C@H]2O[C@@H]1[C@@H]1[C@@H](C(C)C)[C@H](O)C[C@@](C)(OC(C)=O)[C@@H]12 [KLYSIMPLEXIN A],Not Active,Not Active,Not Active,Not Active,Not Active,Not Active,–
C=C1C[C@H]2O[C@H]([C@@H]3[C@@H](C(C)C)[C@H](O)C[C@@](C)(OC(C)=O)[C@@H]32)[C@](C)(OC(=O)CCC)CCC1=O [KLYSIMPLEXIN B],–,–,–,–,–,–,"IC50 (Ca9-22; [5]): 3.9 µM; IC50 (A549; [6]): 4.3 µM; IC50 (MDA-MB-231; [7]): 15 µM; IC50 (HepG2; [8]): 6.4 µM; IC50 [1, 9]: 7.8 µM; IC50 (MCF7; [10]): 6.5 µM"
C=C1C[C@H]2O[C@H]([C@@H]3[C@@H](C(C)C)[C@H](O)C[C@@](C)(OC(C)=O)[C@@H]32)[C@](C)(OC(=O)CCC)CC[C@@H]1O [KLYSIMPLEXIN C],Not Active,Not Active,Not Active,Not Active,Not Active,Not Active,–
C=C1C[C@H]2O[C@H]([C@@H]3[C@@H](C(C)C)[C@H](O)C[C@@](C)(OC(C)=O)[C@@H]32)[C@](C)(OC(=O)CCC)CC[C@@H]1OO [KLYSIMPLEXIN D],Not Active,Not Active,Not Active,Not Active,Not Active,Not Active,–
C=C1C[C@H]2O[C@H]([C@@H]3[C@@H](C(C)C)[C@H](O)C[C@@](C)(OC(C)=O)[C@@H]32)[C@](C)(OC(C)=O)CC[C@@H]1O [KLYSIMPLEXIN E],Not Active,Not Active,Not Active,Not Active,Not Active,Not Active,–
CCCC(=O)O[C@]1(C)CC[C@H](O)[C@@](C)(O)C[C@H]2O[C@@H]1[C@@H]1[C@@H](C(C)C)[C@H](O)C[C@@](C)(OC(C)=O)[C@@H]12 [KLYSIMPLEXIN F],Not Active,Not Active,Not Active,Not Active,Not Active,Not Active,–
CC(=O)O[C@]1(C)CC[C@H](C(C)C)[C@@H]2[C@H]1[C@H]1C[C@](C)(O)[C@@H](O)CC[C@@](C)(OC(C)=O)[C@@H]2O1 [KLYSIMPLEXIN G],Not Active,Not Active,Not Active,Not Active,Not Active,Not Active,–
CCCC(=O)O[C@H]1[C@H](C(C)C)[C@@H]2[C@@H]([C@H]3/C=C(/C)[C@@H](O)CC[C@@](C)(OC(=O)CCC)[C@@H]2O3)[C@](C)(O)[C@@H]1OC(C)=O [KLYSIMPLEXIN H],–,–,–,–,–,–,"IC50 (Ca9-22; [5]): 11 µM; IC50 (A549; [6]): 5.1 µM; IC50 (MDA-MB-231; [7]): 8 µM; IC50 (HepG2; [8]): 10 µM; IC50 [1, 9]: 13 µM; IC50 (MCF7; [10]): 10 µM"
CCCC(=O)O[C@]1(C)CCC[C@@](C)([S+](C)[O-])C[C@H]2O[C@@H]1[C@H]1[C@@H]2[C@](C)(OC(C)=O)CC[C@@H]1C(C)C (stereo partly drawn) [KLYSIMPLEXIN SULFOXIDE A],–,–,–,–,–,–,Activity (RAW264.7 [2]): inactive; Activity (RAW264.7 [3]): 8.8%
CCCC(=O)O[C@H]1[C@H](C(C)C)[C@@H]2[C@@H]([C@H]3C[C@](C)([S+](C)[O-])CCC[C@@](C)(OC(=O)CCC)[C@@H]2O3)[C@](C)(O)[C@@H]1OC(C)=O (stereo partly drawn) [KLYSIMPLEXIN SULFOXIDE B],–,–,–,–,–,–,Activity (RAW264.7 [2]): inactive; Activity (RAW264.7 [3]): 18%
C=C1C[C@H]2O[C@H]([C@@H]3[C@@H](C(C)C)[C@H](OC(=O)CC[S+](C)[O-])[C@@H](OC(C)=O)[C@@](C)(O)[C@@H]32)[C@](C)(OC(=O)CCC)CC[C@@H]1O (stereo partly drawn) [KLYSIMPLEXIN SULFOXIDE C],–,–,–,–,–,–,Activity (RAW264.7 [2]): 7.2%; Activity (RAW264.7 [3]): 11%
C=C1C[C@@H]2O[C@@H]([C@@H]3[C@H]2[C@@](C)(OC(C)=O)[C@H](OC(C)=O)C[C@H]3C(C)C)[C@@](C)(OC(C)=O)CC[C@H]1O [LABIATIN C],–,–,–,–,–,–,IC50 [4]: 16 µM
C=C1C[C@H]2O[C@H]([C@H]3[C@@H]2[C@](C)(OC(C)=O)[C@@H](OC(C)=O)C[C@@H]3C(C)C)[C@](C)(OC(C)=O)CC[C@@H]1O [LABIATIN E],–,–,–,–,–,–,IC50 [4]: 73 µM
C=C1CC[C@H](C(C)C)[C@@H]2[C@H]1[C@H]1C[C@](C)(O)[C@@H](O)CC[C@@](C)(O)[C@@H]2O1 [SCLEROPHYTIN A],–,–,–,–,–,–,IC50 (A549; [6]): 57 µM; IC50 (L1210): 0.003 µM
